Data set [1] is described as follows: Micro testing of dye in Aquify MPS as a stand alone solution. It is filed as cell-based. The note with it: dissolved in Aquify MPS. The source says: FD&C Blue No 1, Sanolin Blue, and Remazol Blue dissolved in Aquify® MPS (CIBA Vision) are submitted for micro testing as a stand alone solution.
Data set [2] is described as follows: Colorant stability in lens care solution (visible spectrum). In kind it is physicochemical. Conditions: in Aquify MPS. The procedure:
The colorant stability has also been tested for FD&C Blue No 1 in Aquify® MPS stored at 25° and 45° C. for 94 days. […] This gives us a shelf-life estimation based on colorant stability alone of approximately a year for FD&C Blue No 1 in Aquify® MPS. The colorant stability has also been tested for Vitosyn Blue in a lens care solution described above stored at 25° and 45° C. for 52 days. […] This gives a shelf life estimation based on colorant stability alone for approximately 7 months for Vitosyn Blue in the lens care solution.

Molecules are shown by their SMILES.

As for `CCN(Cc1cccc(S(=O)(=O)[O-])c1)c1ccc(C(=C2C=CC(=[N+](CC)Cc3cccc(S(=O)(=O)[O-])c3)C=C2)c2ccccc2S(=O)(=O)[O-])cc1.[Na+].[Na+]` [FD&C Blue No 1], the “micro testing as a stand alone solution” value in data set [1] is reported as “passes all micro testing”. In addition, the “shelf-life estimation based on colorant stability alone” value in data set [2] was “approximately a year”. For the same compound, in data set [2] (25° and 45° C., 94 days), the “change of visible spectrum from time 0” value is “has not changed significantly”.
